Data as given in PubChem BioAssay (NCI).
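These data come from cells grown in 96-well plates and exposed to compound for 48 hours at five concentrations. TGI is the concentration that stops growth completely.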

Key:
Assay in all cases: NCI tumour cell line growth inhibition, 48 h
OVCAR-3 ovarian = system: OVCAR-3 ovarian
CAKI-1 renal = system: CAKI-1 renal
OVCAR-5 ovarian = system: OVCAR-5 ovarian
786-0 renal = system: 786-0 renal
SK-MEL-28 melanoma = system: SK-MEL-28 melanoma
SN12C renal = system: SN12C renal
EKVX NSCLC = system: EKVX NSCLC
ACHN renal = system: ACHN renal
OVCAR-4 ovarian = system: OVCAR-4 ovarian
U251 CNS = system: U251 CNS
HOP-18 NSCLC = system: HOP-18 NSCLC
SK-MEL-5 melanoma = system: SK-MEL-5 melanoma
SK-MEL-2 melanoma = system: SK-MEL-2 melanoma
HT29 colon = system: HT29 colon
SF-539 CNS = system: SF-539 CNS
MOLT-4 leukemia = system: MOLT-4 leukemia
HCC-2998 colon = system: HCC-2998 colon
M19-MEL melanoma = system: M19-MEL melanoma
SNB-78 CNS = system: SNB-78 CNS
KM12 colon = system: KM12 colon
RXF-631 renal = system: RXF-631 renal
TK-10 renal = system: TK-10 renal
UACC-62 melanoma = system: UACC-62 melanoma
NCI-H23 lung = system: NCI-H23 lung
SNB-75 CNS = system: SNB-75 CNS
A549 NSCLC = system: A549 NSCLC
SF-268 CNS = system: SF-268 CNS
IGROV1 ovarian = system: IGROV1 ovarian
UO-31 renal = system: UO-31 renal
HOP-62 NSCLC = system: HOP-62 NSCLC
HCT-116 colon = system: HCT-116 colon
DLD-1 colon = system: DLD-1 colon
RXF 393 renal = system: RXF 393 renal
UACC-257 melanoma = system: UACC-257 melanoma
NCI-H226 lung = system: NCI-H226 lung
RPMI-8226 leukemia = system: RPMI-8226 leukemia
LXFL 529 NSCLC = system: LXFL 529 NSCLC
HCT-15 colon = system: HCT-15 colon
M14 melanoma = system: M14 melanoma
SW-620 colon = system: SW-620 colon
MALME-3M melanoma = system: MALME-3M melanoma
K-562 leukemia = system: K-562 leukemia
A498 renal = system: A498 renal
SNB-19 CNS = system: SNB-19 CNS
NCI-H522 lung = system: NCI-H522 lung
KM20L2 colon = system: KM20L2 colon
DMS 273 small cell lung = system: DMS 273 small cell lung
DMS 114 small cell lung = system: DMS 114 small cell lung
XF 498 CNS = system: XF 498 CNS
SF-295 CNS = system: SF-295 CNS
NCI-H460 lung = system: NCI-H460 lung
OVCAR-8 ovarian = system: OVCAR-8 ovarian
LOX IMVI melanoma = system: LOX IMVI melanoma
COLO 205 colon = system: COLO 205 colon
SR leukemia = system: SR leukemia
HL-60(TB) leukemia = system: HL-60(TB) leukemia
CCRF-CEM leukemia = system: CCRF-CEM leukemia
SK-OV-3 ovarian = system: SK-OV-3 ovarian
HOP-92 NSCLC = system: HOP-92 NSCLC

Measured: TGI

O=C(c1ccccc1)[C@@H]1C[C@H](Sc2ccccc2)c2cc(Cl)ccc2N1
37.4 µM: UACC-257 melanoma
56.3 µM: HT29 colon
92.5 µM: SF-295 CNS
68.4 µM: HCT-116 colon
83.1 µM: RXF-631 renal
62.9 µM: NCI-H226 lung
46.9 µM: XF 498 CNS
84 µM: DMS 273 small cell lung
74.3 µM: K-562 leukemia
59.8 µM: SW-620 colon
70.3 µM: KM20L2 colon
52.2 µM: OVCAR-3 ovarian
> 100 µM: CAKI-1 renal | OVCAR-5 ovarian | ACHN renal | OVCAR-4 ovarian | HOP-18 NSCLC | M19-MEL melanoma | SNB-78 CNS | KM12 colon | A549 NSCLC | IGROV1 ovarian | HOP-62 NSCLC | DLD-1 colon | RPMI-8226 leukemia | HCT-15 colon | MALME-3M melanoma | SNB-19 CNS | COLO 205 colon | SR leukemia
33.5 µM: SF-539 CNS
50.3 µM: EKVX NSCLC
51.6 µM: UACC-62 melanoma
51.8 µM: HCC-2998 colon
33.7 µM: SN12C renal
33.6 µM: 786-0 renal
26.5 µM: RXF 393 renal
79.6 µM: TK-10 renal
77.5 µM: LXFL 529 NSCLC
91.6 µM: NCI-H460 lung
64.2 µM: NCI-H23 lung
26.9 µM: SK-MEL-5 melanoma
56.7 µM: UO-31 renal
97.6 µM: SK-MEL-2 melanoma
74.5 µM: M14 melanoma
66.8 µM: OVCAR-8 ovarian
60.9 µM: MOLT-4 leukemia
48.4 µM: SF-268 CNS
48.1 µM: A498 renal
58.7 µM: SNB-75 CNS
82.6 µM: DMS 114 small cell lung
58.9 µM: SK-MEL-28 melanoma
48.6 µM: NCI-H522 lung
47.7 µM: LOX IMVI melanoma
60.1 µM: U251 CNS

C[C@]12CCC(=O)C(O)=C1CC[C@@H]1C2CC[C@]2(C)Nc3c(cnn3-c3ccccc3)CC12 (stereo partly specified)
> 100 µM: OVCAR-3 ovarian | CAKI-1 renal | OVCAR-5 ovarian | 786-0 renal | SK-MEL-28 melanoma | EKVX NSCLC | ACHN renal | OVCAR-4 ovarian | U251 CNS | SK-MEL-5 melanoma | SK-MEL-2 melanoma | HT29 colon | SF-539 CNS | MOLT-4 leukemia | HCC-2998 colon | M19-MEL melanoma | SNB-78 CNS | KM12 colon | RXF-631 renal | TK-10 renal | UACC-62 melanoma | NCI-H23 lung | SNB-75 CNS | A549 NSCLC | IGROV1 ovarian | UO-31 renal | HOP-62 NSCLC | HCT-116 colon | DLD-1 colon | RXF 393 renal | UACC-257 melanoma | NCI-H226 lung | LXFL 529 NSCLC | CCRF-CEM leukemia | HCT-15 colon | M14 melanoma | SW-620 colon | MALME-3M melanoma | K-562 leukemia | A498 renal | KM20L2 colon | DMS 273 small cell lung | XF 498 CNS | SF-295 CNS | NCI-H460 lung | OVCAR-8 ovarian | SK-OV-3 ovarian
97.5 µM: RPMI-8226 leukemia
62.6 µM: HL-60(TB) leukemia

CC1=NN(C(=O)CC(=O)NC(=O)CC(=O)Nc2ccccc2F)C(=O)C1N=Nc1ccc([N+](=O)[O-])cc1 (stereo unspecified)
69.2 µM: COLO 205 colon
63.6 µM: CCRF-CEM leukemia
96.2 µM: EKVX NSCLC
70.9 µM: XF 498 CNS
64.6 µM: 786-0 renal
86.2 µM: A549 NSCLC
92.8 µM: M19-MEL melanoma
50 µM: U251 CNS
41.1 µM: SW-620 colon
81.3 µM: OVCAR-3 ovarian
46.3 µM: RPMI-8226 leukemia
84.2 µM: UO-31 renal
94.8 µM: A498 renal
98.2 µM: SNB-75 CNS
> 100 µM: CAKI-1 renal | OVCAR-5 ovarian | SK-MEL-28 melanoma | SN12C renal | ACHN renal | OVCAR-4 ovarian | HOP-18 NSCLC | SK-MEL-5 melanoma | SK-MEL-2 melanoma | SF-539 CNS | HCC-2998 colon | SNB-78 CNS | KM12 colon | RXF-631 renal | TK-10 renal | UACC-62 melanoma | NCI-H23 lung | SF-268 CNS | IGROV1 ovarian | HOP-62 NSCLC | DLD-1 colon | NCI-H226 lung | LXFL 529 NSCLC | HCT-15 colon | M14 melanoma | MALME-3M melanoma | SNB-19 CNS | KM20L2 colon | DMS 273 small cell lung | SF-295 CNS | NCI-H460 lung | HOP-92 NSCLC | OVCAR-8 ovarian | SK-OV-3 ovarian
41 µM: DMS 114 small cell lung
76.1 µM: UACC-257 melanoma
45.9 µM: HT29 colon
65.4 µM: K-562 leukemia
35.8 µM: LOX IMVI melanoma
77.7 µM: MOLT-4 leukemia
35.5 µM: HCT-116 colon

COC(=O)NC12CC3CC(CC(F)(C3)C1)C2
> 100 µM: OVCAR-3 ovarian | OVCAR-5 ovarian | 786-0 renal | SK-MEL-28 melanoma | EKVX NSCLC | ACHN renal | U251 CNS | SK-MEL-2 melanoma | HT29 colon | SF-539 CNS | MOLT-4 leukemia | HCC-2998 colon | M19-MEL melanoma | SNB-78 CNS | KM12 colon | RXF-631 renal | HL-60(TB) leukemia | TK-10 renal | UACC-62 melanoma | NCI-H23 lung | SNB-75 CNS | A549 NSCLC | IGROV1 ovarian | UO-31 renal | HOP-62 NSCLC | HCT-116 colon | DLD-1 colon | RXF 393 renal | UACC-257 melanoma | RPMI-8226 leukemia | CCRF-CEM leukemia | M14 melanoma | SW-620 colon | MALME-3M melanoma | K-562 leukemia | A498 renal | SNB-19 CNS | NCI-H522 lung | KM20L2 colon | DMS 273 small cell lung | XF 498 CNS | NCI-H460 lung | HOP-92 NSCLC | OVCAR-8 ovarian | LOX IMVI melanoma | COLO 205 colon | SK-OV-3 ovarian
